The target of data set [1] is T1, CYP17 (human testicular microsome) (Homo sapiens, UniProt P05093).
T1 construct: using microsomal fraction from human testis (Celsis Cat #S00110) as the enzyme source; tissue Celsis S00110; host or cells: human testis microsomal fraction
T1 sequence (P05093 1-508): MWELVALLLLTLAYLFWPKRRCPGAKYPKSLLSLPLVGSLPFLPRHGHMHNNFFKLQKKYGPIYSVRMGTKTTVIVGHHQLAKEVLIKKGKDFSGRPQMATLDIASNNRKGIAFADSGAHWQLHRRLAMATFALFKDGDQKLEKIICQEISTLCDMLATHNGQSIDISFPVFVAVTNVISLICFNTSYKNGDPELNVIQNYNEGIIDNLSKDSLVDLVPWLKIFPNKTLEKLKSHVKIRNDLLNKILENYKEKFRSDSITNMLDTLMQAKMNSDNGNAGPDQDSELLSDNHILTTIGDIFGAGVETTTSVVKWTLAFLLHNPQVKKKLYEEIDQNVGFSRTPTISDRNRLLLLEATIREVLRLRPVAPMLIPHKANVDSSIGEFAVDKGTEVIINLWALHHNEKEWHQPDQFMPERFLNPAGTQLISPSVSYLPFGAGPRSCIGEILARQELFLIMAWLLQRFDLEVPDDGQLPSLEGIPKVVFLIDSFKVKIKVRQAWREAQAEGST
The data set can be described thus: CYP17 enzymatic assay (IC50) (Biological Example 4). The format is biochemical.

The target of the next data set is T2, CYP17 (H295R cells) (Homo sapiens, UniProt P05093).
T2 construct: endogenous in cells; host or cells: H295R cells
T2 sequence (P05093 1-508): T1 sequence (P05093 1-508)
Description: CYP17 cellular assay (IC50), testosterone in H295R cells (Biological Example 7). The data set is classed as cell-based. Particulars: H295R cells, testosterone. In a few lines:
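Testosterone in the medium was quantified by ELISA after 24 h at 37 °C with test compound (final 100, 10, 1, 0.1 nM; serum-free DMEM/F-12, ITS+, 0.1% methanol). The H295R cells had been seeded and grown 24 h beforehand; vehicle wells served as control.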

In data set [2] the target is T3, Cyp21 enzyme (Human HEK 293-Cyp21 stable transfected cells) (Homo sapiens, UniProt P08686).
T3 construct: expressed in transfected cells
T3 sequence (P08686 1-495): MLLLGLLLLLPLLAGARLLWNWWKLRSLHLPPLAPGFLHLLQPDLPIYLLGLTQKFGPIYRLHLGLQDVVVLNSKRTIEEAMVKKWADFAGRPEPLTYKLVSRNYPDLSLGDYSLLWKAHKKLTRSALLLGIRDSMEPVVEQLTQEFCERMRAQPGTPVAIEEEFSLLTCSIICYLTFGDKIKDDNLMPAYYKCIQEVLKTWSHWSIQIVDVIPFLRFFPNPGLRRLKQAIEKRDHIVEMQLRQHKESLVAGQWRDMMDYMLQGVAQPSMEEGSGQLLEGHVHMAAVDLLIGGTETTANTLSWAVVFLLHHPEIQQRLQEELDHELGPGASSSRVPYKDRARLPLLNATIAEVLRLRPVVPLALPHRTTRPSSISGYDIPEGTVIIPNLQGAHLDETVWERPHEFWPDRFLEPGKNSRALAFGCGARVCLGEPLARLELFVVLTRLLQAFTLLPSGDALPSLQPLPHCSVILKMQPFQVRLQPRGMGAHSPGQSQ
The data set can be described thus: CYP21-HEK293 enzymatic assay (IC50) (Biological Example 11). The format is cell-based. Particulars: HEK 293-Cyp21 cells.

For data set [3], the target named is T1, CYP17 (human testicular microsome). The data set can be described thus: CYP17 enzymatic assay (% inhibition at 1 nM) (Biological Example 12). The format is biochemical. Particulars: compound at 1 nM.
Data set [4] in a line: Human liver microsome stability assay (Biological Example 8b). Particulars: liver microsomes, pH 7.4. In general terms: Liver microsomes are vesicles of endoplasmic reticulum, rich in cytochrome P450 enzymes.
Description: The reaction was started with addition of excess NADPH (5 mg/mL, 15 μL in 0.1 M potassium phosphate buffer, 1.0 mM EDTA, pH 7.4), the total volume is 45 μL (compound final concentration was 1 μM). […] 50 μL of the supernatant was transferred from each well into a 96-well sample plate containing 50 μL of ultra-pure water (Millipore) for LC-MS/MS analysis.
The mark [5] stands for this setting: human testicular microsome, read-out: CYP17 enzymatic assay IC50 (Biological Example No. 4).
[6] abbreviates: read-out: CYP17 cellular assay IC50 (Biological Example No. 7).
[7] abbreviates: read-out: CYP21-HEK293 enzymatic assay IC50 (Biological Example No. 11).
Where [8] appears, read: read-out: CYP17 enzymatic assay % inhibition at 1 nM (Biological Example No. 12).
Where [9] appears, read: read-out: Biological Example No. 7: CYP17 cellular assay IC50.
Setting [10] is: read-out: Biological Example No. 11: CYP21-HEK293 enzymatic assay IC50.
Setting [11] is: read-out: Biological Example No. 12: CYP17 enzymatic assay % inhibition at 1 nM.
Setting [12] is: human testicular microsome, read-out: Biological Example No. 4: CYP17 enzymatic assay IC50.

The structures appear in SMILES notation. pIC50: −log10 of the molar value. Like-named read-outs stand apart in the source and are kept apart here.

With `C=C1C[C@@H]2[C@H](CC[C@]3(C)C(c4cccnc4)=CC[C@@H]23)[C@@]2(C)C=CC(=O)C=C12` [Compound 311, (10R,13S)-10,13-dimethyl-6-methylene-17-(pyridin-3-yl)-6,7,8,9,10,11,12,13,14,15-decahydro-3H-cyclopenta[a]phenanthren-3-one], the values for the pIC50 (in data set [1] (setting [5]); on CYP17 (H295R cells) (setting [6]); in data set [2] (setting [7])) were more than 7.96, more than 7.82 and more than 8.00, respectively. In addition, in data set [3] (setting [8]), the inhibition (commonly how much of the control response was suppressed) at 0.001 µM was more than 50%. Also, the half-life (as a rule, how long it takes for the measured level to halve) at 1 μM in data set [4] fell in the range of 1 to 50 min.

On to `C=C1C[C@@H]2[C@H](CC[C@]3(C)C(c4cccnc4)=CC[C@@H]23)[C@@]2(C)CCC(=O)C=C12` [Compound 312, (10R,13S)-10,13-dimethyl-6-methylene-17-(pyridin-3-yl)-6,7,8,9,10,11,12,13,14,15-decahydro-1H-cyclopenta[a]phenanthren-3(2H)-one], for which the pIC50 (usually the IC50 on a negative log10 scale, so that one unit is a factor of ten) is more than 7.96 in data set [1] (setting [5]), more than 7.82 on CYP17 (H295R cells) (setting [6]) and 7.00 to 8.00 in data set [2] (setting [7]). In addition, the inhibition at 0.001 µM in data set [3] (setting [8]) is more than 50%. The same molecule had a half-life at 1 μM in data set [4] of 1 to 50 min.

Turning to `C[C@]12CCC(=O)C=C1C1(CC1)C[C@@H]1[C@@H]2CC[C@]2(C)C(c3cccnc3)=CC[C@@H]12` [Compound 313, (10R,13S)-10,13-dimethyl-17-(pyridin-3-yl)-1,7,8,9,10,11,12,13,14,15-decahydrospiro[cyclopenta[a]phenanthrene-6,1′-cyclopropan]-3(2H)-one], the pIC50 in data set [1] (setting [5]) was more than 7.96; at CYP17 (H295R cells) (setting [6]), more than 7.82; in data set [2] (setting [7]), more than 8.00. In addition, the inhibition at 0.001 µM in data set [3] (setting [8]) is more than 50%. This molecule also gave a half-life at 1 μM in data set [4] of 1 to 50 min.

For the molecule `C[C@]12C=CC(=O)C=C1C1(CC1)C[C@@H]1[C@@H]2CC[C@]2(C)C(c3cccnc3)=CC[C@@H]12` [Compound 316, (10R,13S)-10,13-dimethyl-17-(pyridin-3-yl)-7,8,9,11,12,13,14,15-octahydrospiro[cyclopenta[a]phenanthrene-6,1′-cyclopropan]-3(10H)-one], the figures for the pIC50 (in data set [1]; on CYP17 (H295R cells) (setting [9]); in data set [2] (setting [10])) were more than 7.96, more than 7.82 and more than 8.00, respectively. The inhibition at 0.001 µM in data set [3] (setting [11]) fell in the range of 10 to 50%. In data set [4], the half-life at 1 μM fell in the range of 1 to 50 min.

Take `C[C@]12CC[C@H]3[C@@H](CCC4=CC(=O)CC[C@@]43C)C1=CC=C2c1cncc(F)c1` [Compound 352, (10R,13S)-17-(5-fluoropyridin-3-yl)-10,13-dimethyl-6,7,8,9,10,11,12,13-octahydro-1H-cyclopenta[a]phenanthren-3(2H)-one]: the pIC50 is more than 7.96 in data set [1] (setting [12]), more than 7.82 at CYP17 (H295R cells) (setting [9]) and 7.00 to 8.00 in data set [2] (setting [10]). Further, in data set [3] (setting [11]), the inhibition at 0.001 µM is more than 50%. The same molecule displayed a half-life at 1 μM in data set [4] of 1 to 50 min.

As for `CC1CC2C(CC[C@]3(C)C(c4cccnc4)=CCC23)[C@@]2(C)CCNC(=O)C=C12` (stereo partly drawn) [Compound 368, (5aR,7aS)-5a,7a,12-trimethyl-8-(pyridin-3-yl)-3,4,5,5a,5b,6,7,7a,10,10a,11,12-dodecahydrocyclopenta[5,6]naphtho[1,2-d]azepin-2(10bH)-one], the negative logarithm of the IC50 (pIC50) was more than 7.96 in data set [1] (setting [12]), more than 7.82 on CYP17 (H295R cells) (setting [9]) and more than 8.00 in data set [2] (setting [10]). In addition, in data set [3] (setting [11]), the inhibition at 0.001 µM is more than 50%. In data set [4], the half-life at 1 μM lay within 1 to 50 min.

On to `C[C@]12CCNC(=O)C=C1C1(CC1)CC1C2CC[C@]2(C)C(c3cccnc3)=CCC12` (stereo partly drawn) [Compound 369, (5aR,7aS)-5a,7a-dimethyl-8-(pyridin-3-yl)-3,4,5,5a,5b,6,7,7a,10,10a,10b,11-dodecahydro-2H-spiro[cyclopenta[5,6]naphtho[1,2-d]azepine-12,1′-cyclopropan]-2-one], for which the pIC50 in data set [1] (setting [12]) is more than 7.96; on CYP17 (H295R cells) (setting [9]) it was more than 7.82; in data set [2] (setting [10]) it was more than 8.00. For the same molecule, the inhibition at 0.001 µM in data set [3] (setting [11]) lay within 10 to 50%. Besides, in data set [4], the half-life at 1 μM fell in the range of 1 to 50 min.

(Values after US20130252930A1 (BIOMARIN PHARMACEUTICAL INC., priority 2010, published 2013).)
